Structures are written as SMILES. Bounds are passed on as bounds.

As usually defined, the Emax is the greatest response seen or fitted, relative to the assay's reference.

What all share (format): cell-based
The target of test [1] is T1, human muscarinic M2 receptor (Homo sapiens, UniProt P08172).
T1 sequence (P08172 1-466): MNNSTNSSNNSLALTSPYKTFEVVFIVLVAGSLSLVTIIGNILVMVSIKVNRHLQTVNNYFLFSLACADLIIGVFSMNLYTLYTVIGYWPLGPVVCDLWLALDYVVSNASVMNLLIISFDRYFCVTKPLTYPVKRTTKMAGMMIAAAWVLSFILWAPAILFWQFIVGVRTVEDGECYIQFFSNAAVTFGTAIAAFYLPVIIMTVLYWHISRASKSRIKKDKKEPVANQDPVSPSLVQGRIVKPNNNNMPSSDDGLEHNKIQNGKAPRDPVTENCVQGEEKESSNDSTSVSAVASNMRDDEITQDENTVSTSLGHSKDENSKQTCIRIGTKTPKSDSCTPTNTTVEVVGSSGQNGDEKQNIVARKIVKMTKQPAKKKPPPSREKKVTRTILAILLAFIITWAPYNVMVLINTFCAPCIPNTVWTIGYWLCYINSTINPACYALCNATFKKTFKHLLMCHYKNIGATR
Kind of test: Alphascreen Surefire phospho-ERK1/2 functional assay, M2. Conditions: for EC50: CHO cells stably expressing human M2, read-out: pEC50 M2 (converted); for Emax: CHO, read-out: % Emax cf. ACh, M2, CHO cells stably expressing human M2, relative to ACh; for % Emax cf. ACh, M2: CHO cells stably expressing human M2, relative to ACh. The method, then: (§1) ERK1/2 phosphorylation is a downstream consequence of both Gq/11 and Gi/o protein coupled receptor activation, making it highly suitable for the assessment of M1, M3 (Gq/11 coupled) and M2, M4 receptors (Gi/o coupled), rather than using different assay formats for different receptor subtypes. CHO cells stably expressing the human muscarinic M1, M2, M3 or M4 receptor were plated (25K/well) onto 96-well tissue culture plates in MEM-alpha+10% dialysed FBS. Once adhered, cells were serum-starved overnight. Agonist stimulation was performed by the addition of 5 μL agonist to the cells for 5 min (37° C.). Media was removed and 50 μL of lysis buffer added. […] Plates were incubated for 2 h with gentle agitation in the dark and then read on a PHERAstar plate reader.
(§2) pEC50 and Emax figures were calculated from the resulting data for each receptor subtype.
For orientation: In Alpha technology, singlet oxygen from a donor bead excites a nearby acceptor bead.

The target in test [2] is T2, human muscarinic M1 receptor (Homo sapiens, UniProt P11229).
T2 sequence (P11229 1-460): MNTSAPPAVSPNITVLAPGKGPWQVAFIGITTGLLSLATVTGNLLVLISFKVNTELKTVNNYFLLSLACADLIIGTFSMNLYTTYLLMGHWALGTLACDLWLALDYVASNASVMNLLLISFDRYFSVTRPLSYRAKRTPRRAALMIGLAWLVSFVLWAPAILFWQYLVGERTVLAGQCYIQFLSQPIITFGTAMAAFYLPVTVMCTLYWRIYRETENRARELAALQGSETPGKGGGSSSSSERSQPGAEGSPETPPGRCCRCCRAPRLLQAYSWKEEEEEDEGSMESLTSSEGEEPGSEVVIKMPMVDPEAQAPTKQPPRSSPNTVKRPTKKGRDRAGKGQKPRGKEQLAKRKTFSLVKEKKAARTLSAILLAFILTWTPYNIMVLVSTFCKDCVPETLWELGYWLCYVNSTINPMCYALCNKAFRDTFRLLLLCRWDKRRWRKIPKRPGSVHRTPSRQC
The test is described as follows: Alphascreen Surefire phospho-ERK1/2 functional assay, M1. The conditions noted are these: for EC50: CHO cells stably expressing human M1, read-out: pEC50 M1 (converted); for Emax: CHO, read-out: % Emax cf. ACh, M1, CHO cells stably expressing human M1, relative to ACh; for % Emax cf. ACh, M1: CHO cells stably expressing human M1, relative to ACh. The procedure:
as §1, §2

The target in test [3] is T3, human muscarinic M3 receptor (Homo sapiens, UniProt P20309).
T3 construct: expressed in transfected cells
Kind of test: Alphascreen Surefire phospho-ERK1/2 functional assay, M3. Conditions: for EC50: CHO cells stably expressing human M3, read-out: pEC50 M3 (converted); for Emax: CHO, read-out: % Emax cf. ACh, M3, CHO cells stably expressing human M3, relative to ACh; for % Emax cf. ACh, M3: CHO cells stably expressing human M3, relative to ACh. The method, then: as §1, §2

The target in test [4] is T4, human muscarinic M4 receptor (Homo sapiens, UniProt P08173).
T4 construct: expressed in transfected cells
T4 sequence (P08173 1-479): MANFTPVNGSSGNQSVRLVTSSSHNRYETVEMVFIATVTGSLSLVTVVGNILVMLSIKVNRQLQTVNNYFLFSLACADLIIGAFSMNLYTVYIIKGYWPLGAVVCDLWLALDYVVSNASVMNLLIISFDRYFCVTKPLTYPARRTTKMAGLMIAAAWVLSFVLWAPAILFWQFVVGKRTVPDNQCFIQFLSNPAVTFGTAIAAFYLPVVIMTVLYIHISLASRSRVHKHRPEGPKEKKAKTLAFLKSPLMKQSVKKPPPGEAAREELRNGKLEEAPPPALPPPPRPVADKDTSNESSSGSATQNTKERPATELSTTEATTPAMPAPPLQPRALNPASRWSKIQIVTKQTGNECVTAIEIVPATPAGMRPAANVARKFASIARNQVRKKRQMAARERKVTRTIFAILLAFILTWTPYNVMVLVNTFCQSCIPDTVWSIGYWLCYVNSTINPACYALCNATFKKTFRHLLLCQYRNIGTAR
The test is described as follows: Alphascreen Surefire phospho-ERK1/2 functional assay, M4. The conditions noted are these: for EC50: CHO cells stably expressing human M4, read-out: pEC50 M4 (converted); for Emax: CHO, read-out: % Emax cf. ACh, M4, CHO cells stably expressing human M4, relative to ACh; for % Emax cf. ACh, M4: CHO cells stably expressing human M4, relative to ACh. The method, then:
as §1, §2

T3 sequence (P20309 whole entry): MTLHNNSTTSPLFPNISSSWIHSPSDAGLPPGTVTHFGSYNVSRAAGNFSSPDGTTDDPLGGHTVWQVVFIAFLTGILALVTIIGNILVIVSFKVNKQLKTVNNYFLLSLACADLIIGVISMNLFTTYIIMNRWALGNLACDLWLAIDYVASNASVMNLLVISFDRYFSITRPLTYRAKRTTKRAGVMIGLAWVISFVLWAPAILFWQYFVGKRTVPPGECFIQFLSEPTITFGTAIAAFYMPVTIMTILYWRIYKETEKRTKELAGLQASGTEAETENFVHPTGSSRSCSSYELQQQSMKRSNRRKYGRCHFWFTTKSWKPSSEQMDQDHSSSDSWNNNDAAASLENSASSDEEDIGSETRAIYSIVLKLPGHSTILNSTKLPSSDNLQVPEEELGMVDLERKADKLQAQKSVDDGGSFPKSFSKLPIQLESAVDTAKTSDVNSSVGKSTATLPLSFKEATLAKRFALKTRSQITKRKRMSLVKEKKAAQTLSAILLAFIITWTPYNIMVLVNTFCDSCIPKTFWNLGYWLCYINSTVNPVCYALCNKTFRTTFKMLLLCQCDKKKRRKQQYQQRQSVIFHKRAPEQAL

For the compound `CC#CCOC(=O)N1[C@@H]2CCC[C@H]1CC(N1CCC3(CC1)CNC(=O)C3)C2` (mixture of isomers) [Example 5-3], the EC50 was over 20 µM in test [1], 31.6 nM in test [2], 6.31 µM in test [3] and 31.6 nM in test [4]. In addition, the maximal effect (Emax) is 7% in test [1], 80% in test [2], 19% in test [3] and 37% in test [4].
Regarding `CCOC(=O)N1C2CCC1CC(N1CCC3(CC1)CNC(=O)C3)C2` (single isomer, unassigned) [Example 2-2 Isomer 2, ethyl 3-(3-oxo-2,8-diazaspiro[4.5]dec-8-yl)-8-azabicyclo[3.2.1]octane-8-carboxylate], the maximum response (Emax) in test [1] was 0%; in test [2], 86%. The “% Emax cf. ACh, M3” value in test [3] (listed as 2-2 Isomer 2) is recorded as 0%. Also, the “% Emax cf. ACh, M4” value in test [4] (listed as 2-2 Isomer 2) is recorded as 31%.
Regarding `O=C1CC2(CCN(C3CC4CCC(C3)N4C(=O)OCCF)CC2)CN1` (single isomer, unassigned) [Example 2-3 Isomer 2], the EC50 in test [1] is over 20 µM; in test [2], 79.4 nM; in test [3], over 20 µM; in test [4], over 20000 nM. Also, the Emax in test [1] amounted to 4%; in test [3], 0%. Moreover, the “% Emax cf. ACh, M1” value in test [2] (listed as 2-3 Isomer 2) turned out to be 49%. In test [4] (listed as 2-3 Isomer 2), the “% Emax cf. ACh, M4” value turned out to be 16%.
Take `C#CCOC(=O)N1C2CCC1CC(N1CCC3(CC1)CNC(=O)C3)C2` (single isomer, unassigned) [Example 2-4 Isomer 1]: the EC50 is over 20 µM in test [1], 100 nM in test [2], over 20 µM in test [3] and 126 nM in test [4]. Also, the “% Emax cf. ACh, M2” value in test [1] (listed as 2-4 Isomer 1) is 27%. Besides, the Emax was found to be 92% in test [2] and 64% in test [4]. The “% Emax cf. ACh, M3” value in test [3] (listed as 2-4 Isomer 1) was determined as 7%.
Turning to `C#CCOC(=O)N1C2CCC1CC(N1CCC3(CC1)CNC(=O)C3)C2` (single isomer, unassigned) [Example 2-4 Isomer 2], the “% Emax cf. ACh, M2” value in test [1] (listed as 2-4 Isomer 2) was 8%. Also, in test [2], the EC50 was 20 nM and the “% Emax cf. ACh, M1” value stood at 86%. Also, the “% Emax cf. ACh, M3” value in test [3] (listed as 2-4 Isomer 2) was determined as 0%. In test [4], the EC50 is 25.1 nM and the “% Emax cf. ACh, M4” value amounted to 53%.
As for `CC#CCOC(=O)N1C2CCC1CC(N1CCC3(CC1)CNC(=O)C3)C2` (single isomer, unassigned) [Example 2-5 Isomer 1], the EC50 in test [1] was 0.158 µM; in test [2] it was 25.1 nM; in test [3] it was over 20 µM; in test [4], 25.1 nM. For the same compound, the Emax in test [1] is 39%; in test [2], 98%; in test [3] it was 7%; in test [4], 87%.
In the case of `CCOC(=O)N1C2CCC1CC(N1CCC3(CC1)CC(=O)NC3CC)C2` (single isomer, unassigned) [Example 2-8 Isomer 1, ethyl 3-(1-ethyl-3-oxo-2,8-diazaspiro[4.5]decan-8-yl)-8-azabicyclo[3.2.1]octane-8-carboxylate], the EC50 in test [1] is over 20 µM; in test [2] it was 20 nM; in test [3], 12.6 µM; in test [4] it was over 20000 nM. The Emax in test [1] was 4%. Besides, in test [2] (listed as 2-8 Isomer 1), the “% Emax cf. ACh, M1” value is 52%. The “% Emax cf. ACh, M3” value in test [3] (listed as 2-8 Isomer 1) was 50%. Moreover, the “% Emax cf. ACh, M4” value in test [4] (listed as 2-8 Isomer 1) is 23%.
For the compound `CCOC(=O)N1C2CCC1CC(N1CCC3(CC1)CC(=O)NC3CC)C2` (single isomer, unassigned) [Example 2-8 Isomer 2, ethyl 3-(1-ethyl-3-oxo-2,8-diazaspiro[4.5]decan-8-yl)-8-azabicyclo [3.2.1]octane-8-carboxylate], the “% Emax cf. ACh, M2” value in test [1] is on record as 6%. For the same compound, the results for the EC50 in test [2], in test [3] and in test [4] were 100 nM, over 20 µM and 31.6 nM, respectively. Further, the “% Emax cf. ACh, M1” value in test [2] (listed as 2-8 Isomer 2) is reported as 89%. Also, the “% Emax cf. ACh, M3” value in test [3] (listed as 2-8 Isomer 2) is listed as 12%. For the same compound, the “% Emax cf. ACh, M4” value in test [4] (listed as 2-8 Isomer 2) turned out to be 59%.
As to `CCCC1NC(=O)CC12CCN(C1CC3CCC(C1)N3C(=O)OCC)CC2` (single isomer, unassigned) [Example 2-9 Isomer 1], the EC50 in test [1] is over 20 µM; in test [2], 5.01 nM; in test [3], over 20 µM; in test [4] it was 2.51 nM. In addition, the maximum response (Emax) in test [1] is 2%; in test [2], 91%; in test [3] it was 22%; in test [4], 78%.
In the case of `CCOC(=O)N1C2CCC1CC(N1CCC3(CC1)CC(=O)NC3Cc1ccccc1)C2` (single isomer, unassigned) [Example 2-10 Isomer 1], the EC50 is over 20 µM in test [1], 20 nM in test [2], over 20 µM in test [3] and 79.4 nM in test [4]. In test [1] (listed as 2-10 Isomer 1), the “% Emax cf. ACh, M2” value came out at 1%. The Emax in test [2] was 74%. Besides, in test [3] (listed as 2-10 Isomer 1), the “% Emax cf. ACh, M3” value came out at 5%. For the same compound, the “% Emax cf. ACh, M4” value in test [4] (listed as 2-10 Isomer 1) is on record as 21%.
Turning to `CCOC(=O)N1C2CCC1CC(N1CCC3(CC1)CC(=O)NC3Cc1ccccc1)C2` (single isomer, unassigned) [Example 2-10 Isomer 2], the “% Emax cf. ACh, M2” value in test [1] (listed as 2-10 Isomer 2) was found to be 11%. Further, in test [2], the EC50 is 63.1 nM and the “% Emax cf. ACh, M1” value is recorded as 77%. Moreover, the “% Emax cf. ACh, M3” value in test [3] (listed as 2-10 Isomer 2) was found to be 13%. In test [4], the EC50 was 126 nM. The “% Emax cf. ACh, M4” value in test [4] (listed as 2-10 Isomer 2) is given as 50%.
